Results on one molecule are retold here after article PMC4729890 (Frontiers in Molecular Neuroscience, 2016).

Experiment [1] deals with T1, ROS-GC1 (Bos taurus, UniProt P55203).
T1 construct: gene GUCY2D
The experiment in a line: biochemical.

In experiment [2] the target is T2, ROS-GC1 (Bos taurus, UniProt P55203, F570S).
T2 construct: gene GUCY2D
The experiment in a line: biochemical.

The term EC50 denotes the concentration needed to bring the measured effect to its halfway point. A higher EC50 goes with lower potency in that assay.

SMILES strings stand for the structures.

T2 sequence (P55203 57-1110 F570S): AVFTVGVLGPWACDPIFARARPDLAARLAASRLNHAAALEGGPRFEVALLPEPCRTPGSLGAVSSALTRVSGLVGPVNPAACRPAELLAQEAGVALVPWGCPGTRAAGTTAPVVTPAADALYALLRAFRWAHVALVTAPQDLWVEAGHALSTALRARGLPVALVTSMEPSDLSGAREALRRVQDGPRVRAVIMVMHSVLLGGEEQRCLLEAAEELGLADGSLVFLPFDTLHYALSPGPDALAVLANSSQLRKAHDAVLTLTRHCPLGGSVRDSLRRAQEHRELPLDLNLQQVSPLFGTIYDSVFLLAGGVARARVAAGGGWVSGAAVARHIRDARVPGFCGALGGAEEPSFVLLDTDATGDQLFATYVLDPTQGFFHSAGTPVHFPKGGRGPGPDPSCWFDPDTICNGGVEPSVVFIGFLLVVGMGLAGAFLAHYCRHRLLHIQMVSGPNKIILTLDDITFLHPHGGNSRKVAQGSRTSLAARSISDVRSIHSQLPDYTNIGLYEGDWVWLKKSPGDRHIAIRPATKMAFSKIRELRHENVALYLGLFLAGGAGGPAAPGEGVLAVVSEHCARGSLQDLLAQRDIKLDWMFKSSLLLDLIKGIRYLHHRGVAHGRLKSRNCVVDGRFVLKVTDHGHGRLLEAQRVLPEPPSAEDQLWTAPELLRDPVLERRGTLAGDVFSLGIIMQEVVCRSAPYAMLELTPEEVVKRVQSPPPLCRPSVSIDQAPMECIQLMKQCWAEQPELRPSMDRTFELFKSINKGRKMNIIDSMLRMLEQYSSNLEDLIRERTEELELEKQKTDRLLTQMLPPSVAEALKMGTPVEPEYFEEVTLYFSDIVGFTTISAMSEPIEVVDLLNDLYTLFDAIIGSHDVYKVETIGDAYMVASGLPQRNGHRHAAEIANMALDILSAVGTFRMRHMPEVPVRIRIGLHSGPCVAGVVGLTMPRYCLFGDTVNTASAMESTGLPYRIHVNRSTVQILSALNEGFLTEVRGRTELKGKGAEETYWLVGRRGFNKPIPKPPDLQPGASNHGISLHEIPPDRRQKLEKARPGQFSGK
T1 sequence (P55203 57-1110): as the sequence (P55203 57-1110 F570S) above, with S514F counted along it

For `O=C(O)O` [bicarbonate], the half-maximal effective concentration (EC50) at ROS-GC1 [1] was found to be 16 mM; at ROS-GC1 [2], 25 mM.
